Data as given in PubChem BioAssay AID2060495 (Molecular Pharmacology Branch, DTP, NCI, 2025).
Where “and” joins values, the source holds several entries; their conditions need not be identical. Equal values may be shown once.

System: 521955-158-R2-J5-PDC complex spheroid viability
Assay: Anticancer human tumor 521955-158-R2-J5-PDC patient-derived pancreatic carcinoma cell line growth inhibition [GQUAD]
Conditions: for viability, T/C: stronger effect = lower value
Description: DNA G-quadruplex Stabilizer Agents in Combinations in Complex Spheroids
A high-throughput screen of multi-cell type tumor spheroids was designed to identify active combinations of DNA G-quadruplex stabilizer agents and targeted small molecules. Complex spheroids include a stromal component modeled by human endothelial cells (HUVEC) and fibroblasts modeled by human mesenchymal stem cells (MSCs). The concentration ranges selected for each drug and investigational agent were based upon clinically achievable concentrations if the clinical Cmax of the agent was known.
Compounds. The drugs and investigational agents: pidnarulex (CX-5461; NSC782164), APTO-253 (NSC789042), BRACO-19 (NSC847499), peposertib (NSC802822), ceralasertib (NSC780249), elimusertib (NSC800525), camonsertib (NSC841442), AZD-1390 (NSC803789), olaparib (NSC753686), talazoparib (NSC767125), ART-558 (NSC835418), sotorasib (NSC818433), MRTX-1133 (NSC836407), SN-38 (NSC673596), topotecan (NSC609699), etoposide (NSC141540), doxorubicin (NSC123127), gemcitabine (NSC613327), 5-fluorouracil (NSC19893), paclitaxel (NSC125973), vemurafenib (NSC761431), panobinostat (NSC761190), R-306465 (JNJ-16241199; NSC773264), adavosertib (NSC754352), TP-3654 (NSC805149), carboplatin (NSC241240), KSQ-4279 (NSC840948), and staurosporine (NSC755774) were obtained from the National Cancer Institute (NCI) Developmental Therapeutics Program Chemical Repository (34). The FDA-approved anticancer drug set is available from the NCI Developmental Therapeutics Program. […] The stock solutions were prepared in dimethyl sulfoxide (DMSO, Sigma-Aldrich, St. Louis, MO, cat. D2650) at 800-fold the tested concentration and stored at -70 degrees C prior to their use. All drugs and investigational agents were tested over a range starting from a high concentration at or near the clinical Cmax and decreasing in half-log increments. If the clinical Cmax for an agent had not been determined, the highest concentration tested was 10 microM.
2.3 Cell Culture. All cells were maintained in an incubator at 37 degrees C and 5% CO2 with 95% humidity. The PDC lines were cultured according to standard operating procedures established by the NCI PDMR. All PDCs were thawed and cultured in Matrigel-coated flasks prepared with a working solution of 1X Ham's F-12 nutrient mix, without supplementation (Invitrogen, cat. 11765054), 100 U/mL penicillin-streptomycin (Invitrogen, cat. 15140122), and 2.5% Matrigel (Corning Inc., cat. 354248) for the first three passages. The 857933-349-R-J2-PDC line was cultured in 6C/Colon 1B media, which includes advanced DMEM/F-12 (Thermo Fisher Scientific, cat. 12634028), 10 mM HEPES (Thermo Fisher Scientific, cat. 15630080), 1X GlutaMAX supplement (Thermo Fisher Scientific, cat. 35050061), 0.1 mg/mL primocin (InvivoGen, cat. ant-pm-2), 10% defined fetal bovine serum, heat inactivated (HyClone Laboratories Inc., cat. SH30070.03HI), 50% L-WRN conditioned media (ATCC, cat. CRL-3276), 1.25 mM N-Acetyl-L-cysteine (Sigma-Aldrich, cat. A9165), 10 mM nicotinamide (Sigma-Aldrich, cat. N0636), 1X B-27 supplement (Thermo Fisher Scientific, cat. 17504044), 1X N-2 supplement (Thermo Fisher Scientific, cat. 17502048), 10 microM Y-27632 dihydrochloride (Tocris Bioscience, cat. 1254), and 50 ng/mL human EGF recombinant protein (Thermo Fisher Scientific, cat. PHG0311). The 485176-168-R4-J1-PDC line was cultured in Panc media, which includes all 6C/Colon 1B media components plus 100 ng/mL human FGF-10 (Thermo Fisher Scientific, cat. 100-26), 500 nM SB-431542 (Selleckchem, cat. S1067), and gastrin (Tocris, cat. 3006).
[…]
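Also: spheroids exposed to agents for one week before reading.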
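For viability, T/C in this document: 100% = DMSO vehicle control viability.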

SMILES	viability, T/C (compound 0.0316 µM)	viability, T/C (compound 0.1 µM)	viability, T/C (compound 0.316 µM)	viability, T/C (compound 1 µM)	viability, T/C (compound 3.16 µM)	viability, T/C (compound 10 µM)	IC50 (curve of compound)	viability, T/C (compound 0.000999 µM)	viability, T/C (compound 0.00316 µM)	viability, T/C (compound 0.00999 µM)	viability, T/C (compound 0.0999 µM)	IC50 (compound alone, run of 04/22/2024) [nM]
C#Cc1c(F)ccc2cc(O)cc(-c3ncc4c(N5CC6CCC(C5)N6)nc(OCC56CCCN5CC(F)C6)nc4c3F)c12 (stereo not given)	40.9% and 72.8% and 65.6%	32.6% and 85% and 56.9%	31.2% and 57.2% and 57.9%	24.3% and 54.7% and 39.5%	27.9% and 53.1% and 48.7%	17.8% and 37.3% and 35.5%	–	–	–	–	–	–
C=CC(=O)N1CCN(c2nc(=O)n(-c3c(C)ccnc3C(C)C)c3nc(-c4c(O)cccc4F)c(F)cc23)C(C)C1 (stereo not given)	86.9% and 107% and 102%	95.5% and 94.6% and 97.9%	84.9% and 115% and 119%	110% and 98.3% and 102%	109% and 115% and 123%	91% and 91.9% and 80.9%	> 10000 nM	–	–	–	–	–
C=CCn1c(=O)c2cnc(Nc3ccc(N4CCN(C)CC4)cc3)nc2n1-c1cccc(C(C)(C)O)n1	101% and 115% and 102%	70.8% and 67% and 66.1%	30.4% and 29.3% and 16%	17.9% and 15.7% and 7.78%	12.2% and 13.9% and 7.48%	16.8% and 14.4% and 6.61%	181 nM and 167 nM and 145 nM	–	–	–	–	–
CC(=O)O[C@H]1C(=O)[C@@]2(C)[C@H]([C@H](OC(=O)c3ccccc3)[C@]3(O)C[C@H](OC(=O)[C@H](O)[C@@H](NC(=O)c4ccccc4)c4ccccc4)C(C)=C1C3(C)C)[C@]1(OC(C)=O)CO[C@@H]1C[C@@H]2O	55.7% and 44.9% and 22.1%	41.9% and 46.4% and 14.2%	27.7% and 32.3% and 8.41%	33.1% and 30.1% and 9.52%	22.9% and 28.9% and 11.5%	29.9% and 31.3% and 16%	50.9 nM and < 31.6 nM	–	–	–	–	–
CC(C)(O)C1CCC(Nc2ccc3ncc(-c4cccc(C(F)(F)F)c4)n3n2)CC1 (stereo not given)	120% and 105% and 102%	109% and 101% and 81.3%	107% and 114% and 115%	110% and 112% and 125%	15.4% and 16.3% and 6.66%	18.2% and 18% and 8.13%	2100 nM and 2090 nM and 1920 nM	–	–	–	–	–
CC(C)n1c(=O)n(C)c2cnc3cc(F)c(-c4ccc(OCCCN5CCCCC5)nc4)cc3c21	115% (2×) and 100%	96.9% and 107% and 94.7%	114% (2×) and 80.2%	91.4% and 95.4% and 89.3%	96.3% and 107% and 96.1%	95.6% and 95.5% and 84.2%	> 10000 nM	–	–	–	–	–
CC1COCCN1c1cc(-c2ccnn2C)c2ccnc(-c3ccn[nH]3)c2n1 (stereo not given)	86% and 82.9% and 82.7%	13.9% and 30.4% and 13.4%	10.9% and 17.4% and 9.83%	13.5% and 21.3% and 12.2%	16.9% and 33.8% and 15.8%	19.7% and 38.7% and 26.2%	56.7 nM and 64.6 nM and 55.3 nM	–	–	–	–	–
CC1COCCN1c1cc(C2(O)CC3CCC(C2)O3)c2cnn(-c3ccn[nH]3)c2n1 (stereo not given)	32.7% and 40.2% and 58%	11% and 10.8% and 17.1%	11.7% and 12.3% and 23.7%	15.8% and 17.1% and 31.5%	19.6% and 19% and 32.1%	6.3% and 8.53% and 21.2%	< 31.6 nM and 41.8 nM	–	–	–	–	–
CC1COCCN1c1cc(C2(S(C)(=N)=O)CC2)nc(-c2ccnc3[nH]ccc23)n1 (stereo not given)	109% and 97.3% and 99.7%	100% and 91% and 89.6%	97.3% and 109% and 127%	28% and 45.5% and 25.8%	9.05% and 14.9% and 6.37%	11.1% and 16.7% and 11.6%	693 nM and 909 nM and 705 nM	–	–	–	–	–
CCCS(=O)(=O)Nc1ccc(F)c(C(=O)c2c[nH]c3ncc(-c4ccc(Cl)cc4)cc23)c1F	112% and 121% and 109%	83.8% and 96.3% and 95%	73.2% and 96.7% and 148%	102% and 108% and 152%	217% and 247% and 153%	92.2% and 112% and 62.1%	> 10000 nM	–	–	–	–	–
CC[C@@]1(O)C(=O)OCc2c1cc1n(c2=O)Cc2cc3c(CN(C)C)c(O)ccc3nc2-1	86.6% and 79.7% and 91.3%	–	8.07% and 27.5% and 13.2%	–	–	–	66.9 nM and 93.2 nM and 76.6 nM	109% and 110% and 79.9%	84.8% and 101% and 96.6%	96.3% and 112% and 92.2%	30.5% and 50.2% and 38%	–
CCc1c2c(nc3ccc(O)cc13)-c1cc3c(c(=O)n1C2)COC(=O)[C@]3(O)CC	6.38% and 17.9% and 8.13%	–	3% and 10.7% and 2.39%	–	–	–	1.51 nM and 2.59 nM and 1.71 nM	71% and 85.3% and 74.8%	12.1% and 39.8% and 21.3%	7.66% and 28.1% and 9.19%	5.13% and 11.7% and 5.42%	–
CN(C)c1ccc(Nc2c3ccc(NC(=O)CCN4CCCC4)cc3nc3cc(NC(=O)CCN4CCCC4)ccc23)cc1	107% [middle of 12 runs]	103% [middle of 12 runs]	98% [middle of 12 runs]	89.4% [middle of 12 runs]	82.5% [middle of 12 runs]	72.5% [middle of 12 runs]	–	–	–	–	–	> 10000
